“And” between values parts separate entries of the source, which are not always exact repeats. Equal entries are not always repeated.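 1) Cells in 96-well plates. 2) Compound, 48 h, 5 concentrations. 3) Linear interpolation between surrounding doses. 4) Unreached endpoint = highest concentration. The concentration for 50% growth inhibition is given as GI50. The concentration for full growth arrest is given as TGI.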
Tests used:
Assay in all cases: NCI anticancer screen, dose series, 48 h
[1] = tested on: LOX IMVI melanoma
[2] = tested on: CAKI-1 renal
[3] = tested on: OVCAR-4 ovarian
[4] = tested on: RPMI-8226 leukemia
[5] = tested on: A498 renal
[6] = tested on: SR leukemia
[7] = tested on: SK-MEL-5 melanoma
[8] = tested on: SF-268 CNS
[9] = tested on: OVCAR-8 ovarian
[10] = tested on: COLO 205 colon
[11] = tested on: PC-3 prostate
[12] = tested on: K-562 leukemia
[13] = tested on: MALME-3M melanoma
[14] = tested on: MCF7 breast
[15] = tested on: NCI-H522 lung
[16] = tested on: MDA-MB-231 breast
[17] = tested on: SK-MEL-2 melanoma
[18] = tested on: 786-0 renal
[19] = tested on: BT-549 breast
[20] = tested on: UACC-62 melanoma
[21] = tested on: MDA-MB-435
[22] = tested on: SF-295 CNS
[23] = tested on: U251 CNS
[24] = tested on: NCI-H460 lung
[25] = tested on: UO-31 renal
[26] = tested on: CCRF-CEM leukemia
[27] = tested on: SNB-75 CNS
[28] = tested on: M14 melanoma
[29] = tested on: DU-145 prostate
[30] = tested on: HOP-62 NSCLC
[31] = tested on: OVCAR-3 ovarian
[32] = tested on: EKVX NSCLC
[33] = tested on: MOLT-4 leukemia
[34] = tested on: KM12 colon
[35] = tested on: T-47D breast
[36] = tested on: HS 578T breast
[37] = tested on: RXF 393 renal
[38] = tested on: HL-60(TB) leukemia
[39] = tested on: IGROV1 ovarian
[40] = tested on: HT29 colon
[41] = tested on: SK-OV-3 ovarian
[42] = tested on: A549 NSCLC
[43] = tested on: HCT-15 colon
[44] = tested on: NCI/ADR-RES ovarian
[45] = tested on: NCI-H23 lung
[46] = tested on: MDA-N
[47] = tested on: SW-620 colon
[48] = tested on: HCC-2998 colon
[49] = tested on: SK-MEL-28 melanoma
[50] = tested on: SN12C renal
[51] = tested on: HCT-116 colon
[52] = tested on: ACHN renal
[53] = tested on: SNB-19 CNS
[54] = tested on: NCI-H226 lung
[55] = tested on: OVCAR-5 ovarian
[56] = tested on: SF-539 CNS
[57] = tested on: TK-10 renal
[58] = tested on: UACC-257 melanoma
[59] = tested on: HOP-92 NSCLC

Compound: NCCCn1c(Cl)nc2ccccc21
- TGI [1]: > 100 µM
- TGI [2]: > 100 µM
- TGI [3]: > 100 µM
- TGI [4]: > 100 µM
- TGI [5]: > 100 µM
- TGI [6]: > 100 µM
- TGI [7]: > 100 µM
- TGI [8]: > 100 µM
- TGI [9]: > 100 µM
- TGI [10]: > 100 µM
- TGI [11]: > 100 µM
- TGI [12]: > 100 µM
- TGI [13]: > 100 µM
- TGI [14]: > 100 µM
- TGI [15]: > 100 µM
- TGI [16]: > 100 µM
- TGI [17]: > 100 µM
- TGI [18]: > 100 µM
- TGI [19]: > 100 µM
- TGI [20]: > 100 µM
- TGI [21]: > 100 µM
- TGI [22]: > 100 µM
- TGI [23]: > 100 µM
- TGI [24]: > 100 µM
- TGI [25]: > 100 µM
- TGI [26]: > 100 µM
- TGI [27]: > 100 µM
- TGI [28]: > 100 µM
- TGI [29]: > 100 µM
- TGI [30]: > 100 µM
- TGI [31]: > 100 µM
- TGI [32]: > 100 µM
- TGI [33]: > 100 µM
- TGI [34]: > 100 µM
- TGI [35]: > 100 µM
- TGI [36]: > 100 µM
- TGI [37]: > 100 µM
- TGI [38]: > 100 µM
- TGI [39]: > 100 µM
- TGI [40]: > 100 µM
- TGI [41]: > 100 µM
- TGI [42]: > 100 µM
- TGI [43]: > 100 µM
- TGI [44]: > 100 µM
- TGI [45]: > 100 µM
- TGI [46]: > 100 µM
- TGI [47]: > 100 µM
- TGI [48]: > 100 µM
- TGI [49]: > 100 µM
- TGI [50]: > 100 µM
- TGI [51]: > 100 µM
- TGI [52]: > 100 µM
- TGI [53]: > 100 µM
- TGI [54]: > 100 µM
- TGI [55]: > 100 µM

Compound: CC(=O)OCC1OC(n2c(C)c(C)cc(C#N)c2=S)C(OC(C)=O)C(OC(C)=O)C1OC(C)=O (stereo not given)
- TGI [1]: > 100 µM
- TGI [2]: > 100 µM
- TGI [3]: > 100 µM
- TGI [4]: > 100 µM
- TGI [5]: > 100 µM
- TGI [6]: > 100 µM
- TGI [7]: > 100 µM
- TGI [8]: > 100 µM
- TGI [9]: > 100 µM
- TGI [56]: > 100 µM
- TGI [11]: > 100 µM
- TGI [12]: > 100 µM
- TGI [13]: > 100 µM
- TGI [14]: > 100 µM
- TGI [15]: > 100 µM
- TGI [16]: > 100 µM
- TGI [17]: > 100 µM
- TGI [18]: > 100 µM
- TGI [19]: > 100 µM
- TGI [57]: > 100 µM
- TGI [20]: > 100 µM
- TGI [22]: > 100 µM
- TGI [23]: > 100 µM
- TGI [24]: > 100 µM
- TGI [25]: > 100 µM
- GI50 [27]: 17 µM and > 100 µM
- TGI [27]: > 100 µM
- TGI [28]: > 100 µM
- TGI [29]: > 100 µM
- TGI [30]: > 100 µM
- TGI [31]: > 100 µM
- TGI [32]: > 100 µM
- TGI [33]: > 100 µM
- TGI [34]: > 100 µM
- TGI [35]: > 100 µM
- TGI [58]: > 100 µM
- TGI [59]: > 100 µM
- TGI [36]: > 100 µM
- TGI [37]: > 100 µM
- TGI [38]: > 100 µM
- TGI [39]: > 100 µM
- TGI [40]: > 100 µM
- TGI [42]: > 100 µM
- TGI [43]: > 100 µM
- TGI [45]: > 100 µM
- TGI [46]: > 100 µM
- TGI [47]: > 100 µM
- TGI [48]: > 100 µM
- TGI [49]: > 100 µM
- TGI [50]: > 100 µM
- TGI [51]: > 100 µM
- TGI [52]: > 100 µM
- TGI [53]: > 100 µM
- TGI [54]: > 100 µM
- TGI [55]: > 100 µM

Reference: PubChem BioAssay (NCI)
